These results are taken from patent US10668049B2, “Methods of treating cognitive decline with transforming growth factor beta inhibitors” (The Regents of the University of California, priority 2008, dated 2020).

One experiment relates to Smad2. In words: Smad2-P Western blot of cortical lysates after in vivo albumin treatment. The arrangement: species or system rat. The following applies: animals exposed for 48 hours, compared to sham-operated controls. The method, then:
All experimental procedures were approved by the ethical committees dealing with experiments on animals at Charité University Medicine, Berlin and Ben-Gurion University of the Negev, Beer-Sheva. The in vivo experiments were performed as previously described (ivens et al., 2007; Seiffert et al., 2004). Adult male Wistar rats were treated with artificial cerebrospinal fluid (aCSF, composition in mM: 129 NaCl, 21 NaHCO3, 1.25 NaH2PO4, 1.8 MgSO4, 1.6 CaCl2, 3 KCl, 10 glucose) supplemented with deoxycholic acid (DOC, 2 mM, Sigma-Aldrich, Steinheim, Germany), bovine serum albumin (BSA, 0.1 mM. Merck, Darmstadt, Germany) corresponding to 25% of serum albumin concentration, or with TGF-β1 (10 ng/ml, Peprotech, Rocky Hill, N.J.). Sham-operated animals (perfused with aCSF) served as controls. […] Animals were sacrificed 7/8, 24, or 48 hours following treatment. […]
To determine whether albumin binds to TGF-β receptors, co-immunoprecipitation using antibodies against albumin or TGF-βRII was performed on cortical lysate samples treated with albumin. An expected hand corresponding to TGF-βRII was detected in samples immunoprecipitated with the TGF-βRII antibody. More importantly, this band was also detected in samples pre-incubated with albumin when immunoprecipitated with the albumin antibody and probed for TGF-βRII (FIG. 2a). […]
A general note: In western blotting, separated proteins are transferred to a membrane and probed.

Experiment [1] has as its system albumin-induced epileptogenesis. In words: EEG recording from awake rats during albumin-induced epileptogenesis. Type of experiment: in vivo, rat.
A further experiment concerns astrocytic cultures. Description: RT-PCR of astrocytic cultures exposed to albumin. Type of experiment: cell-based, rat. The conditions noted are these: albumin for 24 h. The method, then: Primary neuronal cortical cultures were prepared from embryonic day 18 rats as reported previously (Kaufer et al., 2004). Briefly, cells were dissociated with a papain solution for 20 min at 37° C., After the removal of the papain solution, the tissue was resuspended in growth medium [MEM with Earle's salts containing 2.5% B27 supplement, 0.1% mito serum extender, 5% fetal bovine serum (FBS), 20 mM glucose, and 5 mM L-glutamine] and dissociated by mechanical trituration. The cells were plated, and after 4 h in vitro the cell culture medium was replaced with neurobasal medium supplemented with 2% B27 supplement and 0.5 mM GlutaMAX™. The cells were maintained in 5% CO2 at 37° C. After 7 days in vitro, cytosine arabinofuranoside (AraC) (10 μM) was added to the cultures. After 10 days in vitro, the cells were incubated with 0.4 mM albumin for 24 h at 37° C. For astrocytic cultures, astrocytcs were isolated from the cerebral cortices of PO rat pups. Cells were dissociated with papain and mechanical trituration. The cells were cultured in high-glucose Dulbecco's modified eagle medium supplemented with 10% FBS and 1% penicillin/streptomycin at 37° C. and in 5% C02 (medium was replaced every 3-4 days). After 10 days in vitro, the culture medium was replaced with serum-free high-glucose DMEM (containing 1% penicillin/streptomycin) for 18 h. The cells were then incubated in scrum-free medium containing 0.4 mM albumin for 24 h at 37° C. For immunostainings cells were washed with phosphate buffered saline (PBS) and fixed in 4% paraformaldehyde for 15 min. The cells were permeabilized with 0.2% Triton X-100 in PBS for 5 min and washed in PBS. They were then incubated with 5% normal donkey serum in PBS for one hour at room temperature followed by overnight incubation at 4° C. with either mouse anti-NeuN (1:1000: Chemicon, Temecula, Calif.) or mouse anti-GFAP (1:1000: Cell Signaling Technology, Beverly, Mass.). The cells were washed in PBS, incubated with donkey anti-mouse Cy3 (1:1000; Jackson ImmunoResearch. West Grove, Pa.) for 1 hour at room temperature, and then counterstained with DAPI.
Total RNA was isolated from the somatosensory cortices of animals treated with DOC or albumin (24 h treatment; n=3) or from primary cultures (astrocytic and neuronal, n=3 independent experiments). Expression levels were determined by real-time reverse transcriptase-PCR (RT-PCR) with an iQ5 detection system (Bio-Rad, Hercules, Calif.) using gene-specific primer pairs. RT-PCR data were analyzed using the PCR Miner program (Zhao and Fernald, 2005), and fold changes in gene expression were represented relative to sham-operated controls (in-vivo samples) or serum-deprived controls (in-vitro, samples). Ribosomal 18S RNA (18S rRNA) was used as an internal control for variations in sample preparation. For samples from in-vivo treatments, RT-PCR was performed with the iScript one-step RT-PCR kit (Bio-Rad). Control RT-PCR reactions were performed without reverse transcriptase to verify amplification of genomic DNA. For in-vitro samples, DNase treatment was applied, followed by first-strand cDNA synthesis (iScript cDNA Synthesis kit, Bio-Rad). PCR reactions were carried out with iQ SYBR Green Supermix (Bio-Rad). Primer specificity was verified by melt curve analysis. The amplification cycles for 18S, Gja1, GS, SLC1A2, SLC1A3 (GLAST) and Kenj10 consisted of 40 cycles of 10 s at 95° C., 30 s at 55° C., and 30 s at 72° C. […]

Setting [2] is: during albumin-induced epileptogenesis.

Turning to “albumin: bovine serum albumin, used to induce epileptogenesis”, in the experiment on Smad2, the “Smad2 phosphorylation levels in cortical lysates” value is reported as “increase in Smad2 phosphorylation”. Moreover, in experiment [1] (setting [2]), the “EEG complexity (fractal dimension)” value is “decrease” and the EEG signal harmony entry is given as “increase”. In experiment [1] (one week following treatment), the “number of seizure like events (SLEs)” value is reported as “sharp increase”. Further, in the experiment with astrocytic cultures, the GS transcript expression result is recorded as “significant down-regulation”, the Gja1 transcript expression result is reported as “significant down-regulation”, the Gjb2 transcript expression result was “significant down-regulation” and the Gjb6 transcript expression entry is listed as “significant down-regulation”. Further, the S1C1A3 transcript expression entry in the experiment with astrocytic cultures was “significant down-regulation”.
